# Reference: US10537558B2 (Bantam Pharmaceutical, LLC, priority 2015, dated 2020)
# pEC50: −log10 of the molar value.
# Test system: BJAB cells
# Test: BJAB cell proliferation (Cell Titer Glo)
# Format: cell-based
# Conditions: Homo sapiens, read-out: EC50
# Description: Cells were seeded in white Corning Costar 96-well assay plates at 2500 cells/well in 50 μL of medium. Serial dilutions of test compounds were made in cell culture medium/FBS+0.2% DMSO, and transferred to assay plates in a volume of 50 μL (DMSO at 0.1% final). Plates were maintained at 37° C. for approximately 72 hours. The effect of compounds on cell proliferation was evaluated using the Cell Titer Glo reagent (Promega), according to the manufacturer's instructions. Briefly, 100 μL of reagent was added per well, and after a 10 minute incubation luminescence values were determined on a plate reader (Tecan F200PRO). The percent of luminescence signal relative to untreated controls was calculated for each compound concentration, and EC50 values were determined from dose response data by non-linear regression analysis using Prism (GraphPad). The mTor inhibitor Torin1 (Liu, et al. (2010) J. Med. Chem. 53, 7146.) was used as a control. The data are summarized in the compound table provided above.
row,Compound,pEC50
1,"Cc1nn(-c2nc(-c3ccc(Cl)c(Cl)c3)c(SC(C)C)s2)c(C(=O)O)c1-c1cccnc1 [Compound 44, 1-(4-(3,4-dichlorophenyl)-5-(isopropylthio)thiazol-2-yl)-3-methyl-4-(pyridin-3-yl)-1H-pyrazole-5-carboxylic acid]",4.60 to 5.00
2,"CSc1sc(-n2nc(C)c(Cc3ccccc3[N+](=O)[O-])c2C(=O)O)nc1-c1ccc(Cl)c(Cl)c1 [Compound 45, 1-(4-(3,4-dichlorophenyl)-5-(methylthio)thiazol-2-yl)-3-methyl-4-(2-nitrobenzyl)-1H-pyrazole-5-carboxylic acid]",4.30 to 4.60
3,"Cc1nn(-c2nc(-c3ccc(Cl)c(Cl)c3)c(SC(C)C)s2)c(C(=O)O)c1-c1cccc(CO)c1 [Compound 46, 1-(4-(3,4-dichlorophenyl)-5-(isopropylthio)thiazol-2-yl)-4-(3-(hydroxymethyl)phenyl)-3-methyl-1H-pyrazole-5-carboxylic acid]",4.60 to 5.00
4,"Cc1nn(-c2nc(-c3ccc(Cl)c(Cl)c3)c(SC(C)C)s2)c(C(=O)O)c1-c1ccncc1 [Compound 47, 1-(4-(3,4-dichlorophenyl)-5-(isopropylthio)thiazol-2-yl)-3-methyl-4-(pyridin-4-yl)-1H-pyrazole-5-carboxylic Acid]",5.00 to 5.30
5,"Cc1nn(-c2nc(-c3ccc(Cl)c(Cl)c3)c(SC(C)C)s2)c(C(=O)O)c1-c1cccc(CN)c1 [Compound 48, 4-(3-(aminomethyl)phenyl)-1-(4-(3,4-dichlorophenyl)-5-(isopropylthio)thiazol-2-yl)-3-methyl-1H-pyrazole-5-carboxylic acid]",4.30 to 4.60
6,"Cc1nn(-c2nc(-c3ccc(Cl)c(Cl)c3)c(SC(C)C)s2)c(C(=O)O)c1-c1ccc(CO)cc1 [Compound 49, 1-(4-(3,4-dichlorophenyl)-5-(isopropylthio)thiazol-2-yl)-4-(4-(hydroxymethyl)phenyl)-3-methyl-1H-pyrazole-5-carboxylic acid]",< 4.30
7,"Cc1nn(-c2nc(-c3ccc(Cl)c(Cl)c3)c(SC(C)C)s2)c(C(=O)O)c1-c1ccccc1C(F)(F)F [Compound 50, 1-(4-(3,4-dichlorophenyl)-5-(isopropylthio)thiazol-2-yl)-3-methyl-4-(2-(trifluoromethyl)phenyl)-1H-pyrazole-5-carboxylic acid]",5.00 to 5.30
8,"Cc1nn(-c2nc(-c3ccc(Cl)c(Cl)c3)c(SC(C)C)s2)c(C(=O)O)c1-c1cccc(C(F)(F)F)c1 [Compound 51, 1-(4-(3,4-dichlorophenyl)-5-(isopropylthio)thiazol-2-yl)-3-methyl-4-(3-(trifluoromethyl)phenyl)-1H-pyrazole-5-carboxylic Acid]",5.30 to 6.00
9,"Cc1nn(-c2nc(-c3ccc(Cl)c(Cl)c3)c(SC(C)C)s2)c(C(=O)O)c1-c1ccc(C(F)(F)F)cc1 [Compound 52, 1-(4-(3,4-dichlorophenyl)-5-(isopropylthio)thiazol-2-yl)-3-methyl-4-(4-(trifluoromethyl)phenyl)-1H-pyrazole-5-carboxylic Acid]",4.60 to 5.00
10,"Cc1nn(-c2nc(-c3ccc(Cl)c(Cl)c3)c(SC(C)C)s2)c(C(=O)O)c1C(O)c1ccccc1 (centres unmarked) [Compound 53, 1-(4-(3,4-dichlorophenyl)-5-(isopropylthio)thiazol-2-yl)-4-(hydroxy(phenyl)methyl)-3-methyl-1H-pyrazole-5-carboxylic Acid]",< 4.30
11,"Cc1nn(-c2nc(-c3ccc(Cl)c(Cl)c3)c([S+]([O-])C(C)C)s2)c(C(=O)O)c1Cc1ccccc1[N+](=O)[O-] (centres unmarked) [Compound 54, 1-(4-(3,4-dichlorophenyl)-5-(isopropylsulfinyl)thiazol-2-yl)-3-methyl-4-(2-nitrobenzyl)-1H-pyrazole-5-carboxylic acid]",4.30 to 4.60
12,"Cc1nn(-c2nc(-c3ccc(Cl)c(Cl)c3)c(S(=O)(=O)C(C)C)s2)c(C(=O)O)c1Cc1ccccc1[N+](=O)[O-] [Compound 55, 1-(4-(3,4-dichlorophenyl)-5-(isopropylsulfonyl)thiazol-2-yl)-3-methyl-4-(2-nitrobenzyl)-1H-pyrazole-5-carboxylic acid]",4.60 to 5.00
13,"Cc1nn(-c2nc(-c3ccc(Cl)c(Cl)c3)c(SC(C)C)s2)c(C(=O)O)c1-c1nnc2ccccn12 [Compound 56, 4-([1,2,4]triazolo[4,3-a]pyridin-3-yl)-1-(4-(3,4-dichlorophenyl)-5-(isopropylthio)thiazol-2-yl)-3-methyl-1H-pyrazole-5-carboxylic Acid]",< 4.30
14,"Cc1noc(C)c1-c1c(C)nn(-c2nc(-c3ccc(Cl)c(Cl)c3)c(SC(C)C)s2)c1C(=O)O [Compound 57, 1-(4-(3,4-dichlorophenyl)-5-(isopropylthio)thiazol-2-yl)-4-(3,5-dimethylisoxazol-4-yl)-3-methyl-1H-pyrazole-5-carboxylic acid]",4.60 to 5.00
15,"Cc1nn(-c2nc(-c3ccc(Cl)c(Cl)c3)c(SC(C)C)s2)c(C(=O)O)c1-c1nc2ccccc2[nH]1 [Compound 58, 4-(1H-benzo[d]imidazol-2-yl)-1-(4-(3,4-dichlorophenyl)-5-(isopropylthio)thiazol-2-yl)-3-methyl-1H-pyrazole-5-carboxylic Acid]",4.30 to 4.60
16,"Cc1nn(-c2nc(-c3ccc(Cl)c(Cl)c3)c(SC(C)C)s2)c(C(=O)O)c1-c1cccc(Cl)c1C [Compound 59, 4-(3-chloro-2-methylphenyl)-1-(4-(3,4-dichlorophenyl)-5-(isopropylthio)thiazol-2-yl)-3-methyl-1H-pyrazole-5-carboxylic Acid]",5.00 to 5.30
17,"Cc1nn(-c2nc(-c3ccc(Cl)c(Cl)c3)c(SC(C)C)s2)c(C(=O)O)c1-c1cc(C(F)(F)F)cc(C(F)(F)F)c1 [Compound 60, 4-(3,5-bis(trifluoromethyl)phenyl)-1-(4-(3,4-dichlorophenyl)-5-(isopropylthio)thiazol-2-yl)-3-methyl-1H-pyrazole-5-carboxylic Acid]",5.30 to 6.00
18,"Cc1nn(-c2nc(-c3ccc(Cl)c(Cl)c3)c(SC(C)C)s2)c(C(=O)O)c1-c1cccc(C(C)C)c1 [Compound 61, 1-(4-(3,4-dichlorophenyl)-5-(isopropylthio)thiazol-2-yl)-4-(3-isopropylphenyl)-3-methyl-1H-pyrazole-5-carboxylic Acid]",5.30 to 6.00
19,"COc1ccc(C)cc1-c1c(C)nn(-c2nc(-c3ccc(Cl)c(Cl)c3)c(SC(C)C)s2)c1C(=O)O [Compound 62, 1-(4-(3,4-dichlorophenyl)-5-(isopropylthio)thiazol-2-yl)-4-(2-methoxy-5-methylphenyl)-3-methyl-1H-pyrazole-5-carboxylic acid]",5.00 to 5.30
20,"Cc1nn(-c2nc(-c3ccc(Cl)c(Cl)c3)c(SC(C)C)s2)c(C(=O)O)c1-c1ncc[nH]1 [Compound 63, 1-(4-(3,4-dichlorophenyl)-5-(isopropylthio)thiazol-2-yl)-4-(1H-imidazol-2-yl)-3-methyl-1H-pyrazole-5-carboxylic acid]",4.60 to 5.00
21,"Cc1nn(-c2nc(-c3ccc(Cl)c(Cl)c3)c(SC(C)C)s2)c(C(=O)O)c1-c1cnn2ccccc12 [Compound 64, 1-(4-(3,4-dichlorophenyl)-5-(isopropylthio)thiazol-2-yl)-3-methyl-4-(pyrazolo[1,5-a]pyridin-3-yl)-1H-pyrazole-5-carboxylic acid]",4.60 to 5.00
22,"Cc1nn(-c2nc(-c3ccc(Cl)c(Cl)c3)c(SC(C)C)s2)c(C(=O)O)c1-c1cnn2cccnc12 [Compound 65, 1-(4-(3,4-dichlorophenyl)-5-(isopropylthio)thiazol-2-yl)-3-methyl-4-(pyrazolo[1,5-a]pyrimidin-3-yl)-1H-pyrazole-5-carboxylic acid]",4.30 to 4.60
23,"Cc1nn(-c2nc(-c3ccc(Cl)c(Cl)c3)c(SC(C)C)s2)c(C(=O)O)c1-c1cnn(C)c1 [Compound 66, 2-(4-(3,4-dichlorophenyl)-5-(isopropylthio)thiazol-2-yl)-2′,5-dimethyl-4,4′-bi(2H-pyrazole)-3-carboxylic acid]",5.00 to 5.30
24,"Cc1nn(-c2nc(-c3ccc(Cl)c(Cl)c3)c(S(=O)(=O)C(C)C)s2)c(C(=O)O)c1-c1cnn(C)c1 [Compound 67, 2-(4-(3,4-dichlorophenyl)-5-(isopropylsulfonyl)thiazol-2-yl)-2′,5-dimethyl-4,4′-bi(2H-pyrazole)-3-carboxylic acid]",4.30 to 4.60
25,"Cc1nn(-c2nc(-c3ccc(Cl)c(Cl)c3)c(SC(C)C)s2)c(C(=O)O)c1-c1nc2ccccc2n1C [Compound 68, 1-(4-(3,4-dichlorophenyl)-5-(isopropylthio)thiazol-2-yl)-3-methyl-4-(1-methy-1H-benzo[d]imidazol-2-yl)-1H-pyrazole-5-carboxylic acid]",< 4.30
26,"Cc1nn(-c2nc(-c3ccc(Cl)c(Cl)c3)c(SC(C)C)s2)c(C(=O)O)c1-c1cncc(C#N)c1 [Compound 69, 4-(5-cyanopyridin-3-yl)-1-(4-(3,4-dichlorophenyl)-5-(isopropylthio)thiazol-2-yl)-3-methyl-1H-pyrazole-5-carboxylic Acid]",4.60 to 5.00
27,"CCOc1ncccc1-c1c(C)nn(-c2nc(-c3ccc(Cl)c(Cl)c3)c(SC(C)C)s2)c1C(=O)O [Compound 70, 1-(4-(3,4-dichlorophenyl)-5-(isopropylthio)thiazol-2-yl)-4-(2-ethoxypyridin-3-yl)-3-methyl-1H-pyrazole-5-carboxylic Acid]",4.60 to 5.00
28,"Cc1cc(-c2c(C)nn(-c3nc(-c4ccc(Cl)c(Cl)c4)c(SC(C)C)s3)c2C(=O)O)n(C)n1 [Compound 71, 2′-(4-(3,4-dichlorophenyl)-5-(isopropylthio)thiazol-2-yl)-2,5,5′-trimethyl-3,4′-bi(2H-pyrazole)-3′-carboxylic Acid]",4.60 to 5.00
29,"Cc1nn(-c2nc(-c3ccc(Cl)c(Cl)c3)c(SC(C)C)s2)c(C(=O)O)c1-c1cncnc1 [Compound 72, 1-(4-(3,4-dichlorophenyl)-5-(isopropylthio)thiazol-2-yl)-3-methyl-4-(pyrimidin-5-yl)-1H-pyrazole-5-carboxylic Acid]",4.60 to 5.00
